Measurements from US11584755B2 (IDEAYA BIOSCIENCES, INC., priority 2017, dated 2023).

Target: hFEN1 (Homo sapiens (Human), UniProt P39748)
Experiment: Enzymatic IC50 assay, FAM-labeled DNA oligomer substrate, fluorescence intensity (FEN1)
Type: biochemical
Conditions: hFEN1 70 pM, substrate 100 nM, reaction time 20 minutes, 23° C.
Experimental: FEN1, EXO1 or XPG enzyme was incubated with compound or vehicle (DMSO) and the FAM-labeled DNA oligomer substrate in a microtiter plate. The stop buffer contains EDTA to stop the enzymatic reaction. The plate is read for fluorescence intensity. The high control (DMSO) with high fluorescence intensity represents no inhibition of enzymatic reaction while the low control (10 μM) with low fluorescence intensity represents full inhibition of enzymatic reaction.
• FEN1 • hFEN1: 70 pM • Substrate: 100 nM • Reaction time: 20 minutes • EXO1 • hEXO1: 6 nM, Isoforml • Substrate: 30 nM • Reaction time: 60 minutes • XPG • hXPG: 100 nM • Substrate: 100 nM • Reaction time: 120 minutes
Annealing Buffer: 50 mM Tris-HCl, 50 mM NaCl, 1 mM DTT Assay buffer: 50 mM Tris-HCl pH 8.0, 10 mM MgCl2, 0.01% BSA, 1 mM DTT Stop buffer: 50 mM EDTA in assay buffer Temperature: 23° C. Total volume: 40 μl Controls: • 0% inhibition control: DMSO • 100% inhibition control: 10 μM (final) 5-chloro-3-hydroxy-1,3-dihydroquinazoline-2,4-dione Enzyme Reaction and Detection: • 1. Prepare 25 μM intermediate stock of the substrate by diluting SEQ ID NO:1, SEQ ID NO:2, and SEQ ID NO:3 in annealing buffer, in a PCR tube. • 2. Place the PCR tube on a heat block, heat at 95° C. for 3 minutes, then drop in 0.2° C. increments over 2 minutes, stopping at 25° C. • 3. Remove the tube and let the tube cool at room temperature. • 4. Transfer 10 μL of 3× final concentration test compounds or DMSO to the appropriate wells of a microtiter plate. • 5. Transfer 10 μL of 3× final concentration enzyme in assay buffer or assay buffer alone to the appropriate wells. • 6. Incubate the plate at room temperature for 15 minutes. • 7. Transfer 10 μL of 3× substrate in assay buffer to all the test wells. • 8. Incubate the plate at room temperature for prescribed reaction time. • 9. Centrifuge the plate at 1000 rpm for 1 minute. • 10. Transfer 10 μL of stop buffer to all the test wells. • 11. Centrifuge the plate at 1000 rpm for 1 minute. • 12. Read the plate on a plate reader.

Chain of hFEN1 (P39748 whole entry): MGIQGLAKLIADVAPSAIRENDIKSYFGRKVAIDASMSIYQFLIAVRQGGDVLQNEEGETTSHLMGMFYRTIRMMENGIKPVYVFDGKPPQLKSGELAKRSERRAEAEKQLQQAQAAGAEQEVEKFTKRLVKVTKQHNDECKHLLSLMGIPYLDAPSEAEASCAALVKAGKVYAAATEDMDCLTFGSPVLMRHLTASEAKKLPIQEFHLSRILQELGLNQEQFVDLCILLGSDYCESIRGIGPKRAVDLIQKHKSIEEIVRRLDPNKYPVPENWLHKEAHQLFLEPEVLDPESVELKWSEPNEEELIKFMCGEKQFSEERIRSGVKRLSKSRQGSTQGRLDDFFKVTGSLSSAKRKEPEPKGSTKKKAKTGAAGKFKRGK

Structure (SMILES) | IC50 [nM]
O=C(O)c1c(O)c(=O)n(Cc2ccccc2Br)c2ccsc12 [Example 35, 4-(2-bromobenzyl)-6-hydroxy-5-oxo-4,5-dihydrothieno[3,2-b]pyridine-7-carboxylic acid] | 2250 to 10000
O=C(O)c1c(O)c(=O)n(Cc2cn3ccccc3n2)c2ccsc12 [Example 102, 6-hydroxy-4-(imidazo[1,2-a]pyridin-2-ylmethyl)-5-oxo-4,5-dihydrothieno[3,2-b]pyridine-7-carboxylic acid] | 750 to 2250
CC(C)(C)OC(=O)Nc1ccc(Cn2c(=O)c(O)c(C(=O)O)c3sccc32)cc1 [Example 15, 4-(4-((tert-butoxycarbonyl)amino)benzyl)-6-hydroxy-5-oxo-4,5-dihydrothieno[3,2-b]pyridine-7-carboxylic acid] | < 200
O=C(O)c1c(O)c(=O)n(CC2CCCO2)c2ccsc12 (centres unmarked) [Example 8, 6-hydroxy-5-oxo-4-(tetrahydrofuran-2-ylmethyl)thieno[3,2-b]pyridine-7-carboxylic acid] | 750 to 2250
O=C(O)c1c(O)c(=O)n(CC2CCCCC2)c2ccsc12 [Example 44, 4-(cyclohexylmethyl)-6-hydroxy-5-oxo-4,5-dihydrothieno[3,2-b]pyridine-7-carboxylic acid] | 2250 to 10000
CC(=O)Nc1ccccc1-n1cc(Cn2c(=O)c(O)c(C(=O)O)c3sccc32)cn1 [Example 109, 4-{[1-(2-acetamidophenyl)-1H-pyrazol-4-yl]methyl}-6-hydroxy-5-oxo-4,5-dihydrothieno[3,2-b]pyridine-7-carboxylic acid] | 750 to 2250
CC(=O)Nc1ccccc1Cn1c(=O)c(O)c(C(=O)O)c2sccc21 [Example 39, 4-(2-acetamidobenzyl)-6-hydroxy-5-oxo-4,5-dihydrothieno[3,2-b]pyridine-7-carboxylic acid] | 2250 to 10000
O=C(O)c1c(O)c(=O)n(Cc2cccnc2)c2ccsc12 [Example 60, 6-hydroxy-5-oxo-4-(pyridin-3-ylmethyl)-4,5-dihydrothieno[3,2-b]pyridine-7-carboxylic acid] | 750 to 2250
O=C(O)c1c(O)c(=O)n(Cc2ccc(OC(F)(F)F)cc2)c2ccsc12 [Example 56, 6-hydroxy-5-oxo-4-(4-(trifluoromethoxy)benzyl)-4,5-dihydrothieno[3,2-b]pyridine-7-carboxylic acid] | 2250 to 10000
O=C(O)c1c(O)c(=O)n(Cc2ccncc2)c2ccsc12 [Example 47, 6-hydroxy-5-oxo-4-(pyridin-4-ylmethyl)-4,5-dihydrothieno[3,2-b]pyridine-7-carboxylic acid] | 2250 to 10000
O=C(O)c1c(O)c(=O)n(CC2CCCOC2)c2ccsc12 (centres unmarked) [Example 79, 6-hydroxy-5-oxo-4-[(tetrahydro-2H-pyran-3-yl)methyl]-4,5-dihydrothieno[3,2-b]pyridine-7-carboxylic acid] | 2250 to 10000
O=C(O)c1c(O)c(=O)n(Cc2cccc(C(F)(F)F)c2)c2ccsc12 [Example 43, 6-hydroxy-5-oxo-4-(3-(trifluoromethyl)benzyl)-4,5-dihydrothieno[3,2-b]pyridine-7-carboxylic acid] | 250 to 750
Cc1cc(Cn2c(=O)c(O)c(C(=O)O)c3sccc32)no1 [Example 82, 6-hydroxy-4-[(5-methylisoxazol-3-yl)methyl]-5-oxo-4,5-dihydrothieno[3,2-b]pyridine-7-carboxylic acid] | 750 to 2250
O=C(O)c1c(O)c(=O)n(CC2CCNCC2)c2ccsc12 [Example 10, 6-hydroxy-5-oxo-4-(4-piperidylmethyl)thieno[3,2-b]pyridine-7-carboxylic acid] | 2250 to 10000
CC(C)(C)OC(=O)N1CCCC(Cn2c(=O)c(O)c(C(=O)O)c3sccc32)C1 (centres unmarked) [Example 61, 4-{[1-(tert-butoxycarbonyl)piperidin-3-yl]methyl}-6-hydroxy-5-oxo-4,5-dihydrothieno[3,2-b]pyridine-7-carboxylic acid] | 2250 to 10000
COc1ccc(Cn2c(=O)c(O)c(C(=O)O)c3sc(CC(C)C)cc32)cc1 [Example 157, 6-hydroxy-2-isobutyl-4-(4-methoxybenzyl)-5-oxo-4,5-dihydrothieno[3,2-b]pyridine-7-carboxylic acid] | 2250 to 10000
O=C(O)c1c(O)c(=O)n(CC2CCOCC2)c2ccsc12 [Example 69, 6-hydroxy-5-oxo-4-[(tetrahydro-2H-pyran-4-yl)methyl]-4,5-dihydrothieno[3,2-b]pyridine-7-carboxylic acid] | 2250 to 10000

Second part, the compound after the results:

IC50 [nM] | Structure (SMILES)
< 200 | Cc1nn(C)cc1Cn1cc(Cn2c(=O)c(O)c(C(=O)O)c3sccc32)cn1 [Example 134, 4-({1-[(1,3-dimethyl-1H-pyrazol-4-yl)methyl]-1H-pyrazol-4-yl}methyl)-6-hydroxy-5-oxo-4,5-dihydrothieno[3,2-b]pyridine-7-carboxylic acid]
< 200 | COc1ccc(-n2cc(Cn3c(=O)c(O)c(C(=O)O)c4sccc43)nn2)cc1 [Example 25, 6-hydroxy-4-{[1-(4-methoxyphenyl)triazol-4-yl]methyl}-5-oxo-thieno[3,2-b]pyridine-7-carboxylic acid]
250 to 750 | COc1ccc(Cn2c(=O)c(O)c(C(=O)O)c3sccc32)cc1OC [Example 71, 4-(3,4-dimethoxybenzyl)-6-hydroxy-5-oxo-4,5-dihydrothieno[3,2-b]pyridine-7-carboxylic acid]
250 to 750 | O=C(O)c1c(O)c(=O)n(Cc2cccc(F)c2)c2ccsc12 [Example 11, 4-(3-fluorobenzyl)-6-hydroxy-5-oxo-4,5-dihydrothieno[3,2-b]pyridine-7-carboxylic acid]
< 200 | O=C(O)c1c(O)c(=O)n(Cc2cnn(-c3ccccc3[N+](=O)[O-])c2)c2ccsc12 [Example 107, 6-hydroxy-4-{[1-(2-nitrophenyl)-1H-pyrazol-4-yl]methyl}-5-oxo-4,5-dihydrothieno[3,2-b]pyridine-7-carboxylic acid]
250 to 750 | Nc1ccc(Cn2c(=O)c(O)c(C(=O)O)c3sccc32)cc1Cl [Example 73, 4-(4-amino-3-chlorobenzyl)-6-hydroxy-5-oxo-4,5-dihydrothieno[3,2-b]pyridine-7-carboxylic acid]
250 to 750 | CC(=O)Nc1cc(Cn2c(=O)c(O)c(C(=O)O)c3sccc32)ccc1Cl [Example 65, 4-(3-acetamido-4-chlorobenzyl)-6-hydroxy-5-oxo-4,5-dihydrothieno[3,2-b]pyridine-7-carboxylic acid]
250 to 750 | O=C(O)c1c(O)c(=O)n(Cc2ccc(-c3ccccc3)nc2)c2ccsc12 [Example 147, 6-hydroxy-5-oxo-4-[(6-phenylpyridin-3-yl)methyl]-4,5-dihydrothieno[3,2-b]pyridine-7-carboxylic acid]
< 200 | O=C(O)c1c(O)c(=O)n(Cc2cnn(-c3ccc([N+](=O)[O-])cc3)c2)c2ccsc12 [Example 21, 6-hydroxy-4-{[1-(4-nitrophenyl)-1H-pyrazol-4-yl]methyl}-5-oxo-4,5-dihydrothieno[3,2-b]pyridine-7-carboxylic acid]
< 200 | COc1ccccc1-n1cc(Cn2c(=O)c(O)c(C(=O)O)c3sccc32)cn1 [Example 106, 6-hydroxy-4-{[1-(2-methoxyphenyl)-1H-pyrazol-4-yl]methyl}-5-oxo-4,5-dihydrothieno[3,2-b]pyridine-7-carboxylic acid]
< 200 | COc1cc(Cn2cc(Cn3c(=O)c(O)c(C(=O)O)c4sccc43)cn2)ccn1 [Example 129, 6-hydroxy-4-({1-[(2-methoxypyridin-4-yl)methyl]-1H-pyrazol-4-yl}methyl)-5-oxo-4,5-dihydrothieno[3,2-b]pyridine-7-carboxylic acid]
< 200 | O=C(O)c1c(O)c(=O)n(Cc2ccc(OC(F)F)cc2)c2ccsc12 [Example 57, 4-(4-(difluoromethoxy)benzyl)-6-hydroxy-5-oxo-4,5-dihydrothieno[3,2-b]pyridine-7-carboxylic acid]
< 200 | Cn1nccc1Cn1cc(Cn2c(=O)c(O)c(C(=O)O)c3sccc32)cn1 [Example 124, 6-hydroxy-4-({1-[(1-methyl-1H-pyrazol-5-yl)methyl]-1H-pyrazol-4-yl}methyl)-5-oxo-4,5-dihydrothieno[3,2-b]pyridine-7-carboxylic acid]
< 200 | COCCOc1ccc(Cn2c(=O)c(O)c(C(=O)O)c3sccc32)cc1 [Example 152, 6-hydroxy-4-[4-(2-methoxyethoxy)benzyl]-5-oxo-4,5-dihydrothieno[3,2-b]pyridine-7-carboxylic acid]
< 200 | O=C(O)c1c(O)c(=O)n(Cc2cnn(Cc3cncs3)c2)c2ccsc12 [Example 123, 6-hydroxy-5-oxo-4-{[1-(thiazol-5-ylmethyl)-1H-pyrazol-4-yl]methyl}-4,5-dihydrothieno[3,2-b]pyridine-7-carboxylic acid]
